Measured values from patent publication US20200163984A1, “USE OF ISOVALERYL SPIRAMYCIN I, II AND/OR III IN MANUFACTURING MEDICAMENT FOR TREATING AND/OR PREVENTING TUMOR, AND MEDICAMENT” (SHENYANG FUYANG PHARMACEUTICAL TECHNOLOGY CO., LTD., priority 2017, published 2020).
≈ marks a conversion by molar mass, not a printed value.

Experiments:
[1] = system: human breast cancer cells MCF-7; conditions: MCF-7, MTT, 48 hours
Description: (§1) The purpose of the assay is to evaluate the in vitro cell proliferation inhibition or cytotoxic activity of a tested sample.
(§2) MCF-7, MDA-MB-231, HepG2, A549, H460, H1299, 786-0, 769-P, U251, A172, HeLa, PC3, PANC-1, TE-1, SGC7901, and HT-29 were adherent tumor cells. The adherent tumor cells in the logarithmic growth phase were selected and digested with trypsin, then were prepared into a 4 to 5×10^4/ml cell suspension by a medium containing 10% fetal bovine serum. And the cell suspension was inoculated in a 96-well culture plate, and each well was 100 μL. The 96-well culture plate was cultured at 37° C. and 5% CO2 for 24 hours. The experimental group was replaced with a new culture medium containing different concentrations of the sample to be tested, namely, isovaleryl spiramycin I, isovaleryl spiramycin II, or isovaleryl spiramycin III, while the control group was replaced with a culture medium containing the same volume of solvent. Each group was set up with 3 parallel wells that were cultured at 37° C. and 5% CO2 for 48 hours. After the supernatant was removed, the wells were washed carefully for 3 times with PBS. And 100 μL of freshly prepared culture medium containing 0.5 mg/ml MTT was added to each well for continuous incubation for 4 hours at 37° C. After the supernatant was removed carefully, 150 μL of DMSO was added to each well, and after the material was mixed for 10 minutes with a micro-oscillator, the optical density value was measured at 492 nm with a microplate reader.
(§3) The inhibition rate of the medicament on tumor cell growth is calculated according to the following formula:
(§4) Tumor cell growth inhibition rate (%)=[A492 (negative control)−A492 (dosing group)]/A492 (negative control)×100%
(§5) And the half-inhibitory concentration (IC50) of the sample is determined therefrom.

[2] = system: human breast cancer cells MDA-MB-231; conditions: MDA-MB-231, MTT, 48 hours
Description: as §1, §2, §3, §4, §5

[3] = system: human cervical cancer cell HeLa; conditions: MTT, 48 hours
Description: as §1, §2, §3, §4, §5

[4] = system: human colon cancer cell HT-29; conditions: HT-29, MTT, 48 hours
Description: as §1, §2, §3, §4, §5

[5] = system: human esophageal cancer cell TE-1; conditions: TE-1, MTT, 48 hours
Description: as §1, §2, §3, §4, §5

[6] = system: human gastric adenocarcinoma cell SGC7901; conditions: SGC-7901, MTT, 48 hours
Description: as §1, §2, §3, §4, §5

[7] = system: human glioblastoma cell A172; conditions: A172, MTT, 48 hours
Description: as §1, §2, §3, §4, §5

human glioma cell U251 = conditions: U251, MTT, 48 hours
Description: as §1, §2, §3, §4, §5

[8] = system: human hepatoma cells HepG2; conditions: HepG2, MTT, 48 hours
Description: as §1, §2, §3, §4, §5

[9] = system: human large cell lung cancer cells H1299; conditions: H1299, MTT, 48 hours
Description: as §1, §2, §3, §4, §5

[10] = system: human large cell lung cancer cells H460; conditions: H460, MTT, 48 hours
Description: as §1, §2, §3, §4, §5

[11] = system: human non-small cell lung cancer cells A549; conditions: A549, MTT, 48 hours
Description: as §1, §2, §3, §4, §5

[12] = system: human pancreatic cancer cell PANC-1; conditions: PANC-1, MTT, 48 hours
Description: as §1, §2, §3, §4, §5

[13] = system: human prostate cancer cell PC3; conditions: PC3, MTT, 48 hours
Description: as §1, §2, §3, §4, §5

[14] = system: human renal cell adenocarcinoma cell 769-P; conditions: MTT, 48 hours
Description: as §1, §2, §3, §4, §5

[15] = system: human renal clear cell adenocarcinoma cell 786-O; conditions: MTT, 48 hours
Description: as §1, §2, §3, §4, §5

[16] = system: transplanted tumor of human large cell lung cancer H460 cells; test: H460 transplanted tumor in nude mice
Description: Then cell concentration was adjusted to 1×10^7/ml with matrigel, then each nude mouse was inoculated subcutaneously with 0.2 ml of cells at its right armpit and recorded as the first day of inoculation. When the tumor grows to be greater than or equal to 100 mm^3, the mice were randomly divided into 11 groups with 6 mice in each group: isovaleryl spiramycin I groups with doses of 25, 50 and 100 mg/kg, isovaleryl spiramycin II groups with doses of 25, 50 and 100 mg/kg, and isovaleryl spiramycin III groups with doses of 25, 50 and 100 mg/kg. Each group was continuously administered intragastrically for 30 days with a dose of 20 ml/kg. The mice were sacrificed the next day after drug withdrawal and the indicators were tested. The long diameter and short diameter of the tumor, and the body weight of each mouse were recorded every 3 days from drug administration to nude mouse sacrifice.
The body weight of the nude mice and the long diameter (a) and short diameter (b) of the transplanted tumor were measured every 3 days, and the tumor volume (v), relative tumor volume (RTV) and relative tumor proliferation rate (T/C) are calculated respectively according to the following formulas, wherein V=a×b^2/2; RTV=V/V0 (V0 is the tumor volume before administration, V is the tumor volume before sacrifice), and T/C (%)=treatment group RTV/model control group RTV×100%.
Each mouse was weighed and sacrificed. After the tumor was completely stripped off from the body of the mouse, the non-tumor tissues such as blood stains and fat were removed to weigh the tumor and calculate the tumor growth inhibition rate. The average tumor weight of each group of mice is used as an indicator of efficacy. Tumor growth inhibition rate (%)=(1−the average tumor weight of the treatment group/the average tumor weight of the model group)×100%.

[17] = H460, 25 mg/kg (low dose) i.g. 30 days
[18] = H460, 50 mg/kg (medium dose) i.g. 30 days
[19] = H460, 100 mg/kg (high dose) i.g. 30 days

Structure (SMILES): CCC(=O)O[C@@H]1CC(=O)O[C@H](C)C/C=C/C=C/[C@H](O[C@H]2CC[C@H](N(C)C)[C@@H](C)O2)[C@H](C)C[C@H](CC=O)[C@H](O[C@@H]2O[C@H](C)[C@@H](O[C@H]3C[C@@](C)(O)[C@@H](OC(=O)CC(C)C)[C@H](C)O3)[C@H](N(C)C)[C@H]2O)[C@H]1OC [Isovaleryl spiramycin III, isovaleryl spiramycin III]
- IC50 [1]: 32.44 ± 1.18 µg/mL (≈ 33 µM)
- IC50 [2]: 29.47 ± 0.28 µg/mL (≈ 30 µM)
- IC50 [3]: 15.86 ± 0.62 µg/mL (≈ 16.1 µM)
- IC50 [4]: 22.68 ± 2.32 µg/mL (≈ 23.1 µM)
- IC50 [5]: 20.19 ± 1.83 µg/mL (≈ 20.5 µM)
- IC50 [6]: 17.26 ± 0.79 µg/mL (≈ 17.6 µM)
- IC50 [7]: 16.17 ± 0.54 µg/mL (≈ 16.4 µM)
- IC50 (human glioma cell U251): 16.46 ± 1.54 µg/mL (≈ 16.7 µM)
- IC50 [8]: 27.42 ± 3.52 µg/mL (≈ 27.9 µM)
- IC50 [9]: 32.40 ± 0.41 µg/mL (≈ 33 µM)
- IC50 [10]: 28.80 ± 0.19 µg/mL (≈ 29.3 µM)
- IC50 [11]: 28.84 ± 1.73 µg/mL (≈ 29.3 µM)
- IC50 [12]: 13.18 ± 0.23 µg/mL (≈ 13.4 µM)
- IC50 [13]: 16.37 ± 0.27 µg/mL (≈ 16.6 µM)
- IC50 [14]: 10.75 ± 0.56 µg/mL (≈ 10.9 µM)
- IC50 [15]: 10.52 ± 0.56 µg/mL (≈ 10.7 µM)
- Inhibition Rate (tumor growth inhibition rate) [16, 17]: 17.41%
- Relative Tumor Proliferation Rate (T/C) [16, 17]: 63.03%
- Relative Tumor Volume (RTV) [16, 17]: 6.62 ± 2.34
- Tumor Volume (d 1) [16, 17]: 140.44 ± 14.04 mm3
- Tumor Volume (d 30) [16, 17]: 914.05 ± 279.14 mm3
- Tumor Weight [16, 17]: 1.42 ± 0.26 g
- Inhibition Rate (tumor growth inhibition rate) [16, 18]: 23.31%
- Relative Tumor Proliferation Rate (T/C) [16, 18]: 42.54%
- Relative Tumor Volume (RTV) [16, 18]: 4.47 ± 0.94
- Tumor Volume (d 1) [16, 18]: 148.59 ± 14.47 mm3
- Tumor Volume (d 30) [16, 18]: 666.74 ± 160.61 mm3
- Tumor Weight [16, 18]: 1.32 ± 0.25 g
- Inhibition Rate (tumor growth inhibition rate) [16, 19]: 63.93%
- Relative Tumor Proliferation Rate (T/C) [16, 19]: 35.95%
- Relative Tumor Volume (RTV) [16, 19]: 3.78 ± 0.84
- Tumor Volume (d 1) [16, 19]: 143.19 ± 17.40 mm3
- Tumor Volume (d 30) [16, 19]: 531.56 ± 78.33 mm3
- Tumor Weight [16, 19]: 0.62 ± 0.26 g
- tumor volume and relative tumor volume compared with the model group ([16]; H460, low, medium and high doses, P<0.05): significantly lower
- mouse weight compared with the model group ([16]; mouse, in vivo): no significant changes
